Assay results as given in patent US20240000075A1, “FUNGICIDAL ARYL AMIDINES” (CORTEVA AGRISCIENCE LLC, priority 2020, published 2024).
Read-outs that look alike come from different tables or passages of the source. Blank lines part the entries; values can stand above or below the compound they belong to.

Columns and labels:
Puccinia triticina = assay: Wheat brown rust, whole-plant fungicidal activity (PUCCRT); assay type: in vivo, Puccinia triticina on wheat plants (variety 'Yuma'); conditions: 24 h, 1DP (1 day protectant), read-out: % Disease Control Rating PUCCRT
Summary of the method: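 Wheat 'Yuma' seedlings at first-leaf stage sprayed to run-off with compound from acetone stock diluted in nine volumes water containing 110 ppm Triton X-100, then inoculated with Puccinia triticina spores. Held overnight in dark dew room at 100% RH, then greenhouse for disease development.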

Zymoseptoria tritici = assay: Septoria leaf blotch of wheat, whole-plant fungicidal activity (SEPTTR); assay type: in vivo, Zymoseptoria tritici on wheat plants (variety 'Yuma'); conditions: read-out: % Disease Control Rating SEPTTR
Summary of the method: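 Compounds in acetone, diluted with nine volumes of water containing 110 ppm Triton X-100, were sprayed to run-off on 'Yuma' wheat seedlings at full first-leaf emergence. Spore inoculation was 3 days before (3DC, curative) or 1 day after (1DP, protectant) treatment, then 3 days at 100% RH and greenhouse. First-leaf disease severity (0–100%) was scored relative to untreated plants as percent control.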

Phakopsora pachyrhizi = assay: Asian soybean rust, whole-plant fungicidal activity (PHAKPA); assay type: in vivo; conditions: read-out: % Disease Control Rating PHAKPA
Summary of the method: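 Ten-day-old 'Williams 82' soybean seedlings sprayed to run-off with compound in acetone/water (1:9, 0.011% Tween-20), air-dried, then inoculated; 24 h dark dew room at 100% RH, then growth room. Disease severity scored 0–100% on sprayed leaves; percent control relative to untreated plants.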

Rhynchosporium commune = assay: Leaf blotch of barley, whole-plant fungicidal activity (RHYNSE); assay type: in vivo; conditions: 24 h, 1DP (1 day protectant), read-out: % Disease Control Rating RHYNSE
Summary of the method: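 Barley cv. 'Harrington' at full first-leaf emergence (7-10 seedlings per pot) was sprayed to run-off with compound in acetone plus nine volumes of water containing 110 ppm Triton X-100, air-dried, then inoculated with spore suspension. Plants spent two days in a dark dew room at 100% RH, then moved to greenhouse for disease development.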

- melting point: 101 to 105 °C
Structure (SMILES): CCN(C)/C=N/c1cc(C)c(C(=O)Cc2ccccc2C)cc1C [Compound 1]
- pest or weed control at 200 ppm (Puccinia triticina): > 85%
- pest or weed control at 200 ppm (Zymoseptoria tritici; 24 h, 1DP (1 day protectant)): < 20%
- pest or weed control at 200 ppm (Zymoseptoria tritici; 72 h, 3DC (3 day curative)): 20 to 50%
- pest or weed control at 200 ppm (Phakopsora pachyrhizi; 24 h, 1DP (1 day protectant)): > 85%
- pest or weed control at 200 ppm (Phakopsora pachyrhizi; 72 h, 3DC (3 day curative)): > 85%
- pest or weed control at 200 ppm (Rhynchosporium commune): > 85%

- melting point: 43 to 46 °C
Structure (SMILES): CCN(C)/C=N/c1cc(C)c(C(=O)Cc2ccccc2)cc1C [Compound 2]
- pest or weed control at 200 ppm (Puccinia triticina): > 85%
- pest or weed control at 200 ppm (Zymoseptoria tritici; 24 h, 1DP (1 day protectant)): 20 to 50%
- pest or weed control at 200 ppm (Zymoseptoria tritici; 72 h, 3DC (3 day curative)): < 20%
- pest or weed control at 200 ppm (Phakopsora pachyrhizi; 24 h, 1DP (1 day protectant)): > 85%
- pest or weed control at 200 ppm (Phakopsora pachyrhizi; 72 h, 3DC (3 day curative)): > 85%
- pest or weed control at 200 ppm (Rhynchosporium commune): > 85%

- melting point: 73 to 76 °C
Structure (SMILES): CCN(C)/C=N/c1cc(C)c(C(=O)Cc2cccc(C(F)(F)F)c2)cc1C [Compound 5]
- pest or weed control at 200 ppm (Puccinia triticina): > 85%
- pest or weed control at 200 ppm (Zymoseptoria tritici; 24 h, 1DP (1 day protectant)): 20 to 50%
- pest or weed control at 200 ppm (Zymoseptoria tritici; 72 h, 3DC (3 day curative)): < 20%
- pest or weed control at 200 ppm (Phakopsora pachyrhizi; 24 h, 1DP (1 day protectant)): > 85%
- pest or weed control at 200 ppm (Phakopsora pachyrhizi; 72 h, 3DC (3 day curative)): > 85%
- pest or weed control at 200 ppm (Rhynchosporium commune): > 85%

- melting point: 70 to 74 °C
Structure (SMILES): CCN(C)/C=N/c1cc(C)c(C(=O)Cc2ccc(OC(F)(F)F)cc2)cc1C [Compound 8]
- pest or weed control at 200 ppm (Puccinia triticina): > 85%
- pest or weed control at 200 ppm (Zymoseptoria tritici; 24 h, 1DP (1 day protectant)): 50 to 85%
- pest or weed control at 200 ppm (Zymoseptoria tritici; 72 h, 3DC (3 day curative)): 20 to 50%
- pest or weed control at 200 ppm (Phakopsora pachyrhizi; 24 h, 1DP (1 day protectant)): > 85%
- pest or weed control at 200 ppm (Phakopsora pachyrhizi; 72 h, 3DC (3 day curative)): > 85%
- pest or weed control at 200 ppm (Rhynchosporium commune): > 85%

- melting point: 53 to 57 °C
Structure (SMILES): CCN(C)/C=N/c1ccc(C(=O)Cc2cccc(C(F)(F)F)c2)c(C)c1C [Compound 10]
- pest or weed control at 200 ppm (Puccinia triticina): < 20%
- pest or weed control at 200 ppm (Zymoseptoria tritici; 24 h, 1DP (1 day protectant)): < 20%
- pest or weed control at 200 ppm (Zymoseptoria tritici; 72 h, 3DC (3 day curative)): < 20%
- pest or weed control at 200 ppm (Phakopsora pachyrhizi; 24 h, 1DP (1 day protectant)): > 85%
- pest or weed control at 200 ppm (Phakopsora pachyrhizi; 72 h, 3DC (3 day curative)): > 85%
- pest or weed control at 200 ppm (Rhynchosporium commune): 20 to 50%

More lines, now with the values behind:

Structure (SMILES): CCN(C)/C=N/c1cc(C)c(C(=O)CC2CCCCC2)cc1C [Compound 3]
- pest or weed control at 200 ppm (Puccinia triticina): > 85%
- pest or weed control at 200 ppm (Zymoseptoria tritici; 24 h, 1DP (1 day protectant)): > 85%
- pest or weed control at 200 ppm (Zymoseptoria tritici; 72 h, 3DC (3 day curative)): 20 to 50%
- pest or weed control at 200 ppm (Phakopsora pachyrhizi; 24 h, 1DP (1 day protectant)): > 85%
- pest or weed control at 200 ppm (Phakopsora pachyrhizi; 72 h, 3DC (3 day curative)): > 85%
- melting point: 69 to 71 °C
- pest or weed control at 200 ppm (Rhynchosporium commune): > 85%

Structure (SMILES): CCN(C)/C=N/c1cc(C)c(C(=O)Cc2ccc(C)cc2F)cc1C [Compound 7]
- pest or weed control at 200 ppm (Puccinia triticina): > 85%
- pest or weed control at 200 ppm (Zymoseptoria tritici; 24 h, 1DP (1 day protectant)): 20 to 50%
- pest or weed control at 200 ppm (Zymoseptoria tritici; 72 h, 3DC (3 day curative)): < 20%
- pest or weed control at 200 ppm (Phakopsora pachyrhizi; 24 h, 1DP (1 day protectant)): > 85%
- pest or weed control at 200 ppm (Phakopsora pachyrhizi; 72 h, 3DC (3 day curative)): > 85%
- melting point: 102 to 105 °C
- pest or weed control at 200 ppm (Rhynchosporium commune): > 85%

Structure (SMILES): CCN(C)/C=N/c1ccc(C(=O)CCC(F)(F)F)c(C)c1C [Compound 13]
- pest or weed control at 200 ppm (Puccinia triticina): < 20%
- pest or weed control at 200 ppm (Zymoseptoria tritici; 24 h, 1DP (1 day protectant)): < 20%
- pest or weed control at 200 ppm (Zymoseptoria tritici; 72 h, 3DC (3 day curative)): < 20%
- pest or weed control at 200 ppm (Phakopsora pachyrhizi; 24 h, 1DP (1 day protectant)): 50 to 85%
- pest or weed control at 200 ppm (Phakopsora pachyrhizi; 72 h, 3DC (3 day curative)): > 85%
- melting point: 52 to 56 °C
- pest or weed control at 200 ppm (Rhynchosporium commune): < 20%

Structure (SMILES): CCN(C)/C=N/c1ccc(C(=O)CCCC(F)(F)F)c(C)c1C [Compound 14]
- pest or weed control at 200 ppm (Puccinia triticina): > 85%
- pest or weed control at 200 ppm (Zymoseptoria tritici; 24 h, 1DP (1 day protectant)): < 20%
- pest or weed control at 200 ppm (Zymoseptoria tritici; 72 h, 3DC (3 day curative)): < 20%
- pest or weed control at 200 ppm (Phakopsora pachyrhizi; 24 h, 1DP (1 day protectant)): > 85%
- pest or weed control at 200 ppm (Phakopsora pachyrhizi; 72 h, 3DC (3 day curative)): > 85%
- melting point: 49 to 52 °C
- pest or weed control at 200 ppm (Rhynchosporium commune): < 20%

Structure (SMILES): CCN(C)/C=N/c1ccc(C(=O)CC2CCCCC2)c(C)c1C [Compound 15]
- pest or weed control at 200 ppm (Puccinia triticina): < 20%
- pest or weed control at 200 ppm (Zymoseptoria tritici; 24 h, 1DP (1 day protectant)): < 20%
- pest or weed control at 200 ppm (Zymoseptoria tritici; 72 h, 3DC (3 day curative)): < 20%
- pest or weed control at 200 ppm (Phakopsora pachyrhizi; 24 h, 1DP (1 day protectant)): > 85%
- pest or weed control at 200 ppm (Phakopsora pachyrhizi; 72 h, 3DC (3 day curative)): > 85%
- melting point: 68 to 72 °C
- pest or weed control at 200 ppm (Rhynchosporium commune): 50 to 85%

Structure (SMILES): Cc1cc(C(=O)CC2CCCC2)c(C)cc1/N=C/N1CCCCC1 [Compound 80]
- pest or weed control at 200 ppm (Puccinia triticina): > 85%
- pest or weed control at 200 ppm (Zymoseptoria tritici; 24 h, 1DP (1 day protectant)): 50 to 85%
- pest or weed control at 200 ppm (Zymoseptoria tritici; 72 h, 3DC (3 day curative)): < 20%
- pest or weed control at 200 ppm (Phakopsora pachyrhizi; 24 h, 1DP (1 day protectant)): > 85%
- pest or weed control at 200 ppm (Phakopsora pachyrhizi; 72 h, 3DC (3 day curative)): > 85%
- pest or weed control at 200 ppm (Rhynchosporium commune): > 85%

Structure (SMILES): Cc1cc(C(=O)Cc2c(F)cc(F)cc2F)c(C)cc1/N=C/N1CCCCC1 [Compound 81]
- pest or weed control at 200 ppm (Puccinia triticina): > 85%
- pest or weed control at 200 ppm (Zymoseptoria tritici; 24 h, 1DP (1 day protectant)): < 20%
- pest or weed control at 200 ppm (Zymoseptoria tritici; 72 h, 3DC (3 day curative)): < 20%
- pest or weed control at 200 ppm (Phakopsora pachyrhizi; 24 h, 1DP (1 day protectant)): 50 to 85%
- pest or weed control at 200 ppm (Rhynchosporium commune): < 20%
